Data from US11214803B2, “Modulators of YAP1 expression” (Ionis Pharmaceuticals, Inc., priority 2019, dated 2022).
Strand notation (5' to 3'): a small letter for the sugar, then the base; units joined by * are phosphorothioate-linked, units joined directly phosphodiester-linked; [ ] holds rarer units or linkages, { } end groups; capitals alone tell only the bases. e = 2'-O-(2-methoxyethyl) (MOE); k = constrained ethyl (cEt); [5mC] = 5-methylcytosine; d = 2'-deoxy (DNA); m = 2'-O-methyl

What follows are substances tested on Yap1 mRNA (assay: Antisense inhibition of human Yap1 in SNU-449 cells by modified oligonucleotides, single dose (Example 5, RTS36584)). Details: Table 39; SNU-449 cells, 10,000 cells per well, free uptake, 2,000 nM oligonucleotide, approx. 48 hours; RTS36584; normalized to RIBOGREEN; Yap1 mRNA relative to untreated control.
Type: cell-based
How it was run: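 SNU-449 cells were given 2,000 nM oligonucleotide by free uptake for about 48 h. Yap1 mRNA was then measured by RT-qPCR with primer probe set RTS36584, normalized to total RNA by RIBOGREEN and expressed as percent of untreated control.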

Substance	YAP1 (% UTC)
1198382 (kT*dT*dA*dG*dA*dG*dT*dA*dT*dG*dT*kG*eG*k[5mC]*eA*kA; antisense) [Compound 1198382]	19 % UTC
1198420 (kA*dT*dA*dT*dG*dG*dT*dT*dT*dT*dG*kT*eG*kT*eG*kT; antisense) [Compound 1198420]	41 % UTC
1198380 (kA*dG*dA*dG*dT*dA*dT*dG*dT*dG*dG*k[5mC]*eA*kA*eT*kA; antisense) [Compound 1198380]	18 % UTC
1198391 (kG*dA*dG*dG*dT*dA*dT*dA*dA*d[5mC]*dT*kG*eG*kG*e[5mC]*kA) [Compound 1198391]	29 % UTC

Same assay, conditions: Table 40 (separate experiment); SNU-449 cells, 10,000 cells per well, free uptake, 2,000 nM oligonucleotide, approx. 48 hours; RTS36584; normalized to RIBOGREEN; Yap1 mRNA relative to untreated control

Substance	YAP1 (% UTC)
1198748 (kA*eA*kG*d[5mC]*dA*d[5mC]*dT*dT*dT*dT*dA*d[5mC]*eA*eT*kT*kA; antisense) [Compound 1198748]	81 % UTC
1198759 (kA*eG*kG*dA*dT*dG*d[5mC]*dA*dT*dG*dG*dT*eT*eT*kT*kT; antisense) [Compound 1198759]	27 % UTC
1198777 (kA*eT*kT*dG*d[5mC]*dA*dA*dT*d[5mC]*dT*dG*dT*e[5mC]*eT*kG*kA; antisense) [Compound 1198777]	84 % UTC

Same assay, conditions: Table 41; SNU-449 cells, 10,000 cells per well, free uptake, 2,000 nM modified oligonucleotide, approximately 48 hours; RTS36584; normalized to RIBOGREEN; Yap1 mRNA relative to untreated control cells

Substance	YAP1 (% UTC)
1198628 (TGTCTCATGCCTTATA; modified gapmer, chemistry not fully specified) [Compound 1198628]	27 % UTC
1198688 (antisense kA*kT*dA*dT*dT*dG*d[5mC]*dA*dA*dT*d[5mC]*dT*kG*eT*k[5mC]*eT) [Compound 1198688]	48 % UTC
1198660 (antisense kG*kG*dA*dA*dG*dA*dT*d[5mC]*dT*dG*dA*dA*kA*e[5mC]*kT*e[5mC]) [Compound 1198660]	66 % UTC
1198667 (antisense kA*kG*dT*dG*d[5mC]*dT*dT*dT*dG*dG*dA*dA*kG*eA*kT*e[5mC]) [Compound 1198667]	40 % UTC
1198772 (k[5mC]*eT*k[5mC]*dT*dT*dA*dT*dA*dT*dG*dG*dT*eT*eT*kT*kG; antisense) [Compound 1198772]	41 % UTC
1198668 (antisense kA*kT*dA*dG*dT*dG*d[5mC]*dT*dT*dT*dG*dG*kA*eA*kG*eA) [Compound 1198668]	72 % UTC

Same assay, conditions: Table 42 (separate experiment); SNU-449 cells, 10,000 cells per well, free uptake, 2,000 nM modified oligonucleotide, approximately 48 hours; RTS36584; normalized to RIBOGREEN; Yap1 mRNA relative to untreated control cells

Substance	YAP1 (% UTC)
1198231 (kT*kT*dG*dG*dA*dA*dG*dA*dT*d[5mC]*dT*eG*eA*eA*kA*k[5mC]) [Compound 1198231]	73 % UTC
1198237 (AGTGCTTTGGAAGATC; chemistry not fully specified) [Compound 1198237]	51 % UTC

Same assay, conditions: Table 43 experiment; SNU-449 cells, 10,000 cells per well, free uptake, 2,000 nM, approximately 48 hours; RTS36584; Yap1 mRNA normalized to RIBOGREEN, relative to untreated control cells

Substance	YAP1 (% UTC)
1198242 (kA*kT*dT*dT*dA*dG*dG*dA*dT*dG*d[5mC]*eA*eT*eG*kG*kT; antisense) [Compound 1198242]	47 % UTC
1198277 (kA*kA*dG*dT*dA*dA*dG*dG*dT*dT*dT*e[5mC]*e[5mC]*e[5mC]*kA*kG; antisense) [Compound 1198277]	32 % UTC
1198481 (antisense k[5mC]*kT*dT*dT*dT*dA*d[5mC]*dA*dT*dT*dA*eG*kG*eA*kA*e[5mC]) [Compound 1198481]	72 % UTC
1198473 (antisense kT*k[5mC]*dT*dA*dT*dA*dT*dT*dA*dG*dA*eG*kT*eA*kT*eG) [Compound 1198473]	66 % UTC

Same assay, conditions: Table 44 experiment; SNU-449 cells, 10,000 cells per well, free uptake, 2,000 nM, approximately 48 hours; RTS36584; Yap1 mRNA normalized to RIBOGREEN, relative to untreated control cells

Substance	YAP1 (% UTC)
1198503 (k[5mC]*kA*dG*dA*dT*dT*dT*dA*dG*dG*dA*eT*kG*e[5mC]*kA*eT; antisense) [Compound 1198503]	31 % UTC
1198516 (kA*kT*dA*dT*dT*dG*d[5mC]*dA*dA*dT*d[5mC]*eT*kG*eT*k[5mC]*eT; antisense) [Compound 1198516]	50 % UTC

Same assay, conditions: Table 45; Yap1 mRNA as percent of untreated control, SNU-449 cells, single dose

Substance	YAP1 (% UTC)
1198960 (kA*kA*dG*dT*dG*dT*dA*dT*dG*dT*d[5mC]*kA*dG*kA*dA*kG; antisense) [Compound 1198960]	6 % UTC
1198922 (kG*kG*dA*dA*dG*dA*dT*d[5mC]*dT*dG*dA*kA*dA*k[5mC]*dT*k[5mC]; antisense) [Compound 1198922]	59 % UTC
1198964 (kT*kT*dT*dA*dA*dA*dG*dT*dG*dT*dA*kT*dG*kT*d[5mC]*kA; antisense) [Compound 1198964]	59 % UTC

Same assay, conditions: Table 46; Yap1 mRNA as percent of untreated control, SNU-449 cells, single dose

Substance	YAP1 (% UT)
1198849 (kG*kA*dT*dT*dT*dA*dG*dG*dA*dT*dG*k[5mC]*eA*kT*eG*kG; antisense) [Compound 1198849]	42 % UT
1198805 (antisense kA*kT*dT*dG*dT*d[5mC]*dT*d[5mC]*dA*dT*dG*k[5mC]*e[5mC]*kT*eT*kA) [Compound 1198805]	23 % UT
1198966 (kA*kA*d[5mC]*dT*dT*dT*dA*dA*dA*dG*dT*kG*dT*kA*dT*kG) [Compound 1198966]	78 % UT
1198881 (kT*kA*dA*dG*dG*dT*dT*dT*d[5mC]*d[5mC]*d[5mC]*kA*eG*kA*eT*kT; antisense) [Compound 1198881]	36 % UT

Same assay, conditions: Table 48; Yap1 mRNA level relative to untreated control; modified oligonucleotides targeting SEQ ID NO.: 1 and 2

Substance	YAP1 (% UT)
1198318 (kT*kT*kT*dG*dG*dA*dA*dG*dA*dT*d[5mC]*dT*kG*eA*kA*eA; antisense) [Compound 1198318]	120 % UT

Same assay, conditions: Table 49; Yap1 mRNA level relative to untreated control; modified oligonucleotides targeting SEQ ID NO.: 1 and 2

Substance	YAP1 (% UT)
1198573 (antisense kT*kT*kA*dA*dG*d[5mC]*dA*d[5mC]*dT*dT*dT*dT*kA*k[5mC]*kA*eT) [Compound 1198573]	76 % UT
1198337 (kT*k[5mC]*kT*dT*dA*dT*dA*dT*dG*dG*dT*dT*kT*eT*kG*eT; antisense) [Compound 1198337]	26 % UT
1198580 (antisense kG*kT*kG*d[5mC]*dT*dT*dT*dG*dG*dA*dA*dG*kA*kT*k[5mC]*eT) [Compound 1198580]	43 % UT
1198352 (kT*kG*kT*dA*dT*dG*dT*d[5mC]*dA*dG*dA*dA*kG*eA*kG*eT; antisense) [Compound 1198352]	7 % UT

Same assay, conditions: Table 50; Yap1 mRNA remaining as percent of untreated control (UT), SNU-449 cells, single dose

Substance	YAP1 (% UT)
1198586 (antisense kA*kT*kT*dT*dA*dG*dG*dA*dT*dG*d[5mC]*dA*kT*kG*kG*eT) [Compound 1198586]	96 % UT
1197284 (kA*kG*kT*dA*mU*dG*dT*dG*dG*d[5mC]*dA*dA*dT*kA*kA*kT; antisense) [Compound 1197284]	35 % UT
1198561 (antisense kG*kG*kT*dA*dT*dA*dA*d[5mC]*dT*dG*dG*dG*k[5mC]*kA*kA*eA) [Compound 1198561]	29 % UT
1197280 (kT*kG*kT*d[5mC]*mU*d[5mC]*dA*dT*dG*d[5mC]*d[5mC]*dT*dT*kA*kT*kA; antisense) [Compound 1197280]	53 % UT

Same assay, conditions: Table 51; Yap1 mRNA remaining as percent of untreated control (UT), SNU-449 cells, single dose

Substance	YAP1 (% UT)
1200787 (kA*kA*kA*dT*dT*mG*dT*d[5mC]*dT*d[5mC]*dA*dT*dG*k[5mC]*k[5mC]*kT) [Compound 1200787]	38 % UT
1197316 (kT*kA*kA*dG*mU*dA*dA*dG*dG*dT*dT*dT*d[5mC]*k[5mC]*k[5mC]*kA; antisense) [Compound 1197316]	46 % UT
1197257 (antisense kT*k[5mC]*kA*dG*mA*dT*dT*dT*dA*dG*dG*dA*dT*kG*k[5mC]*kA) [Compound 1197257]	20 % UT
1197261 (kT*k[5mC]*kT*dT*mA*dT*dA*dT*dG*dG*dT*dT*dT*kT*kG*kT) [Compound 1197261]	91 % UT

Same assay, conditions: Table 52; Yap1 mRNA, modified oligonucleotides targeting SEQ ID NO: 1 and 2

Substance	YAP1 (% UT)
1200848 (kA*kT*kA*dT*dT*mG*d[5mC]*dA*dA*dT*d[5mC]*dT*dG*kT*k[5mC]*kT; antisense) [Compound 1200848]	58 % UT
1200851 (kG*kT*kA*dA*dT*mA*dT*dT*dG*d[5mC]*dA*dA*dT*k[5mC]*kT*kG; antisense) [Compound 1200851]	25 % UT
1200814 (kA*k[5mC]*kT*dT*dT*mU*dA*d[5mC]*dA*dT*dT*dA*dG*kG*kA*kA; antisense) [Compound 1200814]	73 % UT
1200842 (k[5mC]*kT*k[5mC]*dT*dT*mA*dT*dA*dT*dG*dG*dT*dT*kT*kT*kG; antisense) [Compound 1200842]	168 % UT
1200827 (kA*kG*kT*dG*d[5mC]*mU*dT*dT*dG*dG*dA*dA*dG*kA*kT*k[5mC]) [Compound 1200827]	67 % UT
1200871 (kG*kA*k[5mC]*dT*dA*mA*dG*dT*dA*dA*dG*dG*dT*kT*kT*k[5mC]; antisense) [Compound 1200871]	65 % UT

Same assay, conditions: Yap1 mRNA, percent of untreated control; modified oligonucleotides targeting SEQ ID NO: 1 and 2; Table 47

Substance	YAP1 (% UT)
1009324 (kA*kG*kT*dA*dT*dG*dT*dG*dG*d[5mC]*dA*dA*dT*kA*kA*kT; antisense) [Compound 1009324]	27 % UT
1074462 (kG*kG*kA*dA*dA*dT*dT*dG*dT*d[5mC]*dT*d[5mC]*dA*kT*kG*k[5mC]; antisense) [Compound 1074462]	7 % UT
